In patent publication US5589568A (priority 1994, dated 1996):
Read-outs that look alike come from different tables or passages of the source. Where no end group is shown, it is not given here.

Assays:
Go = target: T1, Go (Bos taurus, UniProt P08239); assay: steady state GTPase activity of Go in phospholipid vesicles; assay type: biochemical, bovine
T1 construct: proteins were extracted from bovine cerebral cortical membranes; from tissue; host or cells: bovine brain (cerebral cortical membranes)
Description: G proteins were reconstituted into phospholipid vesicles composed of dioleoyl-PC/bovine brain PS/1-palmitoyl,2-oleoyl-PE (3:4:3) as reported previously by Higashijima et al., 1988, incorporated herein by reference.

Gs = Gs (Homo sapiens, UniProt P63092); assay: steady state GTPase activity of Gs; assay type: biochemical; conditions: read-out: Gs af. (apparent affinity, estimated by EC50 of GTPase activity)
Description: Methods for the assay of steady state GTP hydrolysis and GTPγS binding have been described previously by Higashijima, 1987, and Ferguson, 1986, and incorporated herein by reference. Unless noted otherwise, assays of steady state GTP hydrolysis and of the binding and dissociation of guanine nucleotides were carried out in the buffer described previously, but without detergent and with 1.1 mM MgSO4 and the nucleotide specified in the text. When necessary, the concentration of free Mg^2+ was adjusted using EDTA buffers as described previously by Higashijima, 1987, and incorporated herein by reference.
The data set forth in the following tables represent data generated by the inventors employing the steady state GTP hydrolysis, expressed as molar turnover numbers, are described herein under the "Assay" section of the Experimental Procedures in Example 1. The data has been classified according to the criteria outlined below and the effects of each peptide and modified variant on Go, Gi, and Gs have been tabulated. Table III below sets forth data generated for various mastoparan analogues designed by the inventors, in comparison with the various naturally-occurring mastoparans (e.g., MP, MP-A and MP-T). Table IV sets forth similar data generated for various receptor-based peptides designed by the inventors based on a consideration of various G-protein linked receptors.
Apparent affinity (af.) and apparent efficacy (ef.) were estimated by EC50 and maximum turnover number of GTPase activity.

[1] = Table VI, receptor-based peptides

Chain of Gs (P63092 whole entry): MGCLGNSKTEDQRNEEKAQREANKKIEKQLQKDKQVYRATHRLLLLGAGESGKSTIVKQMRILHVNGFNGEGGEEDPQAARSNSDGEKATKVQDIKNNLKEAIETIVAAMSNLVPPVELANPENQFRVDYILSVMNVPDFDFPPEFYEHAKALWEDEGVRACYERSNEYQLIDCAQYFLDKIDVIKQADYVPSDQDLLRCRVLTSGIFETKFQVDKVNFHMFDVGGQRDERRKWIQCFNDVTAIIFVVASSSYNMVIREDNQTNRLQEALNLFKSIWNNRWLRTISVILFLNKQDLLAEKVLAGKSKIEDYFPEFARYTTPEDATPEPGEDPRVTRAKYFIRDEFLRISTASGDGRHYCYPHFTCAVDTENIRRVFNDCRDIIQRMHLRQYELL
T1 sequence (P08239 2-354 limits assumed): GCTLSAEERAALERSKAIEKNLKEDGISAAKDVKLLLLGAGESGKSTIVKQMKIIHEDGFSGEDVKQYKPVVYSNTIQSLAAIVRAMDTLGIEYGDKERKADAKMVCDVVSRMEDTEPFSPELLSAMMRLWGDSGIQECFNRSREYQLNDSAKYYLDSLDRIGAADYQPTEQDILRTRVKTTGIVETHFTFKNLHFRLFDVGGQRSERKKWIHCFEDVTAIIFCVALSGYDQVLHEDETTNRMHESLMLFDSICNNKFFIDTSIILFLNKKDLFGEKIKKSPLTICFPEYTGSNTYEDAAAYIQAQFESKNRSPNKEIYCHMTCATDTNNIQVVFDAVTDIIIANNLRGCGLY
T1 sequence (P62871 2-340 partner limits assumed): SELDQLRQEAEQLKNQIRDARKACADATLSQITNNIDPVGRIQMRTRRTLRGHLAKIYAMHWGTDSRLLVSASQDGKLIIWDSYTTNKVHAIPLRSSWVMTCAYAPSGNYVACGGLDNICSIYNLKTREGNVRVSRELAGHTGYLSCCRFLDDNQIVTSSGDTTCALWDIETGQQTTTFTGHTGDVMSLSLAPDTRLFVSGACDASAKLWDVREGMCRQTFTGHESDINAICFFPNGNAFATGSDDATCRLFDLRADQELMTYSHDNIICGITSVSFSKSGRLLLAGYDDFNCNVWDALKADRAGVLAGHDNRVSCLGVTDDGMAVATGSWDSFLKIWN
T1 sequence (P63212 2-68 partner limits assumed): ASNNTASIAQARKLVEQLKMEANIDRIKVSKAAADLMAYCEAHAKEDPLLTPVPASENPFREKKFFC

Row | Substance | EC50 (Go) | EC50 (Gs; Table IV) | EC50 (Gs; [1])
1 | INLKAIAAFAKKLL-NH2 [MP-T, reference compound] | 3 to 10 µM | 10 to 30 µM | –
2 | INLKAKAALAKKLL-NH2 [Mas17] | 30 to 100 µM | 3 to 10 µM | –
3 | INLKALAAAAKKLL-NH2 [MAS12] | 10 to 30 µM | 3 to 10 µM | –
4 | INLKALAAKAKKLL-NH2 [MAS13] | 30 to 100 µM | 3 to 10 µM | –
5 | INLKALAALAAALL-NH2 [ER5] | 3 to 10 µM | 3 to 10 µM | –
6 | INLKALAALAAKLL-NH2 [Mas9] | 3 to 10 µM | 30 to 100 µM | –
7 | INLKALAALAKALL-NH2 [ER1] | 3 to 10 µM | 3 to 10 µM | –
8 | INLKALAALAKKLA-NH2 [MAS04] | 3 to 10 µM | 3 to 10 µM | –
9 | INLKALAALAKNLL-NH2 [ER20] | 3 to 10 µM | 10 to 30 µM | –
10 | INLKALAALAKRLL-NH2 [MAS08] | 3 to 10 µM | 3 to 10 µM | –
11 | INLKALAALAQALL-NH2 [ER3] | 10 to 30 µM | 3 to 10 µM | –
12 | INLKALAALARALL-NH2 [ER2] | < 3 µM | 3 to 10 µM | –
13 | INLKALAALARKLL-NH2 [MAS10] | 3 to 10 µM | 3 to 10 µM | –
14 | INLKALAALKKKLL-NH2 [MAS11] | 10 to 30 µM | 3 to 10 µM | –
15 | INLKALAKLAKKLL-NH2 [MAS14] | 10 to 30 µM | 3 to 10 µM | –
16 | INLKALKALAKALL-NH2 [ER10] | < 3 µM | 3 to 10 µM | –
17 | INLKALKALAKKLL-NH2 [MAS15] | 10 to 30 µM | 3 to 10 µM | –

Row | Substance | EC50 (Go) | EC50 (Gs; Table IV) | EC50 (Gs; [1])
18 | INLKKLAALAKKLL-NH2 [MAS18] | 10 to 30 µM | 3 to 10 µM | –
19 | INLQALAALAKALL-NH2 [ER8] | 3 to 10 µM | 3 to 10 µM | –
20 | INLQALAALAQALL-NH2 [ER9] | 30 to 100 µM | 10 to 30 µM | –
21 | INLQALKALAKALL-NH2 [ER11] | 3 to 10 µM | 3 to 10 µM | –
22 | INLRALAALAKALL-NH2 [ER6] | < 3 µM | 3 to 10 µM | –
23 | INLRALAALAKKLL-NH2 [MAS20] | 3 to 10 µM | 3 to 10 µM | –
24 | INLRALAALARALL-NH2 [ER7] | < 3 µM | 3 to 10 µM | –
25 | INLRALAALRRRLL-NH2 [ER28] | < 3 µM | 3 to 10 µM | –
26 | INLRALRALARALL-NH2 [ER24] | < 3 µM | 3 to 10 µM | –
27 | INWRAWRAWARAWL-NH2 [ER27] | < 3 µM | 3 to 10 µM | –
28 | INYKALAACAKKIL-NH2 [ER14] | 3 to 10 µM | 3 to 10 µM | –
29 | INYKALAALAKALC-NH2 [ER17] | 3 to 10 µM | 10 to 30 µM | –
30 | INYKALCALAKKIL-NH2 [ER15] | 30 to 100 µM | 10 to 30 µM | –
31 | IQLKALAALAKALL-NH2 [ER12] | 3 to 10 µM | 3 to 10 µM | –
32 | IVYREAKEQIRKIDRVL-NH2 [ER22] | 30 to 100 µM | – | 30 to 100 µM
33 | IVYREAKEQIRKIL-NH2 [ER23] | 30 to 100 µM | – | 30 to 100 µM
34 | REHKALKTLGIIC-NH2 [ER40] | > 100 µM | – | 30 to 100 µM
